For one test, the target named is cyclophilin A (Homo sapiens, UniProt P62937). In words: Cyclophilin A TR-FRET competitive binding assay. Conditions: competition with CsA-Cy5 for His-tagged CypA, two-hour incubation. On the procedure:
Cyclophilin A TR-FRET Competitive Binding Assay
Inhibitor potency was measured using a competitive binding assay with a time-resolved fluorescence resonance energy transfer (TR-FRET) readout. […] An IC50 value was calculated using a four-parameter logistic fit.

Test [1] relates to Huh-7 HCV replicon cells (1b replicon). In words: anti-HCV activity in Huh-7 cell line harboring a HCV replicon (luciferase readout). The format is cell-based. Conditions: Hepatitis C virus; for EC50: Huh-7, 72 h, inhibition of viral replication, Huh-7 HCV replicon cells, 3 days, read-out: EC50; for inhibition at 1 µM: Huh-7, read-out: Replicon 1b % inhibition at 1 μM, 1b replicon, 1 μM compound. (A replicon is a self-replicating genome or part of one, used to study replication in cells.)

Molecules are shown by their SMILES.

cyclophilin A, sequence (P62937 whole entry, species assumed): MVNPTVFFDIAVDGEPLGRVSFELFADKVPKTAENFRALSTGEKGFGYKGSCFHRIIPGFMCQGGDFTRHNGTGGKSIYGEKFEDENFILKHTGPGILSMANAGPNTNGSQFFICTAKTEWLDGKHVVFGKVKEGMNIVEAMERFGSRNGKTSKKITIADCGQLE

On to `CC(C)[C@@H]1NCCC/C=C/c2cc3cc(ccc3cn2)[C@@H](C)OC(=O)[C@@H]2CCCN(N2)C(=O)[C@H](C)NC1=O` [Compound 20], for which, at cyclophilin A, the IC50 – broadly, the point on the concentration scale where inhibition reaches its midpoint – was 101 to 1000 nM. In addition, in test [1], the concentration for a half-maximal effect (EC50) – broadly, the concentration that produces a half-maximal response – is below 1000 nM and the inhibition (usually the relative decrease from the control value, in per cent) at 1 µM was 88%.
On cyclophilin A, `CC(C)[C@@H]1NS(=O)(=O)C/C=C/c2cc3cc(ccc3cn2)[C@@H](C)OC(=O)[C@@H]2CCCN(N2)C(=O)[C@H](C)NC1=O` [Compound 21] gave an IC50 of 101 to 1000 nM. In test [1], the EC50 was below 1000 nM and the inhibition at 1 µM stood at 71%.
For `CC(C)[C@@H]1OCCC/C=C/c2cc3cc(ccc3cn2)[C@@H](C)OC(=O)[C@@H]2CCCN(N2)C(=O)[C@H](C)NC1=O` [Compound 23], the IC50 on cyclophilin A was below 100 nM. Further, in test [1], the EC50 was below 1000 nM and the inhibition at 1 µM amounted to 97%.
Taken in the same sequence, the figures for `CC(C)[C@@H]1OCCCCCc2cc3cc(ccc3cn2)[C@@H](C)OC(=O)[C@@H]2CCCN(N2)C(=O)[C@H](C)NC1=O` [Compound 24] were below 100 nM, below 1000 nM and 83%.
Taken in the same sequence, the figures for `CC(C)[C@@H]1NCC(C)(C)/C=C/c2ccc3ccc(nc3c2)[C@@H](C)OC(=O)[C@@H]2CCCN(N2)C(=O)[C@H](C)NC1=O` [Compound 25] were below 100 nM, below 1000 nM and 98%.
`CC(C)[C@H]1C(=O)N[C@@H](C)C(=O)N2CCC[C@H](N2)C(=O)O[C@H](C)c2ccc3ccc(cc3n2)/C=C/C(C)(C)CN1C` [Compound 26] registered an IC50 at cyclophilin A of 101 to 1000 nM. Moreover, in test [1], the half-maximal effective concentration (EC50) is below 1000 nM and the inhibition at 1 µM was 68%.
At cyclophilin A, `CC(C)[C@@H]1OC(=O)[C@@](C)(CO)/C=C/c2ccc3ccc(nc3c2)[C@@H](C)NC(=O)[C@@H]2CCCN(N2)C(=O)[C@H](C)NC1=O` [Compound 29] returned a concentration for half-maximal inhibition (IC50) below 100 nM. Moreover, in test [1], the EC50 is below 1000 nM and the inhibition at 1 µM stood at 99%.
With `CC(C)[C@@H]1OC(=O)[C@@](C)(CO)CCc2ccc3ccc(nc3c2)[C@@H](C)NC(=O)[C@@H]2CCCN(N2)C(=O)[C@H](C)NC1=O` [Compound 30], the IC50 on cyclophilin A was below 100 nM. Moreover, in test [1], the EC50 is below 1000 nM and the inhibition at 1 µM came to 84%.
On cyclophilin A, `CC(C)[C@@H]1N[C@H](C(F)(F)F)C(C)(C)/C=C/c2ccc3ccc(nc3c2)[C@@H](C)OC(=O)[C@@H]2CCCN(N2)C(=O)[C@H](C)NC1=O` [Compound 31] displayed an IC50 below 100 nM. For the same compound, in test [1], the EC50 is below 1000 nM and the inhibition at 1 µM stood at 88%.
Taken in the same sequence, the figures for `CC(C)[C@@H]1N[C@@H](C(F)(F)F)C(C)(C)/C=C/c2ccc3ccc(nc3c2)[C@@H](C)OC(=O)[C@@H]2CCCN(N2)C(=O)[C@H](C)NC1=O` [Compound 32] were 101 to 1000 nM, 1100 to 10000 nM and 56%.
Taken in the same sequence, the figures for `CC(C)[C@@H]1OC(=O)C(C)(C)/C=C/c2ccc3ccc(nc3c2)[C@@H](C)N(C)C(=O)[C@@H]2CCCN(N2)C(=O)[C@H](CO)NC1=O` [Compound 41] were below 100 nM, below 1000 nM and 98%.
Compound `CC(C)[C@@H]1OC(=O)[C@]2(/C=C/c3ccc4ccc(nc4c3)[C@@H](C)N(C)C(=O)[C@@H]3CCCN(N3)C(=O)[C@H](C)NC1=O)CC[C@H](O)CC2` [Compound 42] showed an IC50 on cyclophilin A below 100 nM. For the same compound, in test [1], the EC50 was below 1000 nM and the inhibition at 1 µM was 96%.
`CC(C)[C@@H]1OC(=O)C(C)(C)/C=C/c2ccc3ccc(nc3c2)[C@@H](C)N(C)C(=O)[C@@H]2CCCN(N2)C(=O)[C@H](C)NC1=O` [Compound 47] came in with an IC50 at cyclophilin A below 100 nM. In addition, in test [1], the EC50 was below 1000 nM and the inhibition at 1 µM is 100%.
`C[C@@H]1NC(=O)[C@H](C2CCC2)OC(=O)C(C)(C)/C=C/c2ccc3ccc(nc3c2)[C@@H](C)NC(=O)[C@@H]2CCCN(N2)C1=O` [Compound 52]: at cyclophilin A, the IC50 was below 100 nM. Further, in test [1], the EC50 is below 1000 nM and the inhibition at 1 µM is 100%.
`C[C@@H]1NC(=O)[C@H](C2CC2)OC(=O)C2(/C=C/c3ccc4ccc(nc4c3)[C@@H](C)NC(=O)[C@@H]3CCCN(N3)C1=O)COCOC2` [Compound 53] showed an IC50 on cyclophilin A below 100 nM. In test [1], the EC50 was below 1000 nM and the inhibition at 1 µM was 99%.
Taken in the same sequence, the figures for `CO[C@@H](C)[C@@H]1OC(=O)C(C)(C)/C=C/c2ccc3ccc(nc3c2)[C@@H](C)NC(=O)[C@@H]2CCCN(N2)C(=O)[C@H](C)NC1=O` [Compound 54] were 101 to 1000 nM, below 1000 nM and 77%.
The compound `CC(C)[C@@H]1OC(=O)[C@@](C)(COC(F)F)/C=C/c2ccc3ccc(nc3c2)[C@@H](C)NC(=O)[C@@H]2CCCN(N2)C(=O)[C@H](C)NC1=O` [Compound 55] showed an IC50 at cyclophilin A below 100 nM. Moreover, in test [1], the half-maximal effective concentration (EC50) is below 1000 nM and the inhibition at 1 µM was found to be 100%.
As to `CC(C)[C@@H]1OC(=O)[C@@](C)(COC(F)(F)F)/C=C/c2ccc3ccc(nc3c2)[C@@H](C)NC(=O)[C@@H]2CCCN(N2)C(=O)[C@H](C)NC1=O` [Compound 56], the IC50 on cyclophilin A was below 100 nM. Also, in test [1], the EC50 was below 1000 nM and the inhibition at 1 µM worked out at 99%.
For `CO[C@H](C)[C@@H]1OC(=O)C(C)(C)/C=C/c2ccc3ccc(nc3c2)[C@@H](C)NC(=O)[C@@H]2CCCN(N2)C(=O)[C@H](C)NC1=O` [Compound 60], the IC50 on cyclophilin A was below 100 nM. Further, in test [1], the EC50 was below 1000 nM and the inhibition at 1 µM is 96%.
Regarding `C[C@@H]1NC(=O)[C@H](C)OC(=O)C(C)(C)/C=C/c2ccc3ccc(nc3c2)[C@@H](C)NC(=O)[C@@H]2CCCN(N2)C1=O` [Compound 61], the IC50 on cyclophilin A lay within 101 to 1000 nM. Also, in test [1], the EC50 lay within 1100 to 10000 nM and the inhibition at 1 µM amounted to 46%.
Take `C[C@@H]1NC(=O)[C@H](CC(F)F)OC(=O)C(C)(C)/C=C/c2ccc3ccc(nc3c2)[C@@H](C)NC(=O)[C@@H]2CCCN(N2)C1=O` [Compound 62]: the half-inhibitory concentration (IC50) on cyclophilin A was below 100 nM. For the same compound, in test [1], the EC50 is below 1000 nM and the inhibition at 1 µM was 84%.
Taken in the same sequence, the figures for `C[C@@H]1NC(=O)[C@H](C2CCCC2)OC(=O)C2(/C=C/c3ccc4ccc(nc4c3)[C@@H](C)NC(=O)[C@@H]3CCCN(N3)C1=O)COCOC2` [Compound 63] were below 100 nM, below 1000 nM and 100%.
In the case of `CC[C@H](C)[C@@H]1OC(=O)C2(/C=C/c3ccc4ccc(nc4c3)[C@@H](C)NC(=O)[C@@H]3CCCN(N3)C(=O)[C@H](C)NC1=O)COCOC2` [Compound 65], the IC50 at cyclophilin A is below 100 nM. Besides, in test [1], the concentration for a half-maximal effect (EC50) was below 1000 nM and the inhibition at 1 µM worked out at 99%.
Turning to `C[C@@H]1NC(=O)[C@H](C2CC2)OC(=O)C2(/C=C/c3ccc4ccc(nc4c3)[C@@H](C)NC(=O)[C@@H]3CCCN(N3)C1=O)CCC(O)CC2` (stereo partly drawn) [Compound 66], at cyclophilin A, the IC50 is below 100 nM. For the same compound, in test [1], the EC50 is below 1000 nM and the inhibition at 1 µM was 97%.
Taken in the same sequence, the figures for `C[C@@H]1NC(=O)[C@H](C2CCOCC2)OC(=O)C(C)(C)/C=C/c2ccc3ccc(nc3c2)[C@@H](C)NC(=O)[C@@H]2CCCN(N2)C1=O` [Compound 67] were 101 to 1000 nM, below 1000 nM and 67%.

The values are drawn from US9642889B2, “Macrocyclic inhibitors of Flaviviridae viruses” (Selcia Limited, priority 2012, dated 2017).
